Key:
[1] = molecular target: human cathepsin K (UniProt P43236); assay: Cathepsin K Assay (hrbCat K); format: biochemical; conditions: Z-Leu-Arg-AMC substrate, pH 5.5, 15 min preincubation; read-out: hrbCat K (IP (nM))
Description: Cathepsin K Assay (hrbCat K)
(§1) Then 0.5 μL of DMSO from each dilution were added to 18.75 μL of assay buffer (MES, 50 mM (pH 5.5); EDTA, 2.5 mM; DTT, 2.5 mM and 10% DMSO) containing human cathepsin K (0.4 nM) in assay buffer solution. The assay solutions were mixed for 5-10 seconds on a shaker plate and incubated for 15 minutes at room temperature. Z-Leu-Arg-AMC (8 μM) in 6.25 μL of assay buffer was added to the assay solutions. Hydrolysis of the coumarin leaving group (AMC) was followed by spectrofluorometry (Exλ=360 nm; Emλ=460 nm) for 30 minutes. Percent of inhibition were calculated by fitting experimental values to standard mathematical model for dose response curve.

[2] = molecular target: T1, human cathepsin F (Homo sapiens, UniProt Q9UBX1); assay: Cathepsin F assay (hCat F); format: biochemical; conditions: Z-Phe-Arg-AMC substrate, pH 5.5, 15 min preincubation; read-out: hCat F (IP (nM))
T1 sequence (Q9UBX1 271-484): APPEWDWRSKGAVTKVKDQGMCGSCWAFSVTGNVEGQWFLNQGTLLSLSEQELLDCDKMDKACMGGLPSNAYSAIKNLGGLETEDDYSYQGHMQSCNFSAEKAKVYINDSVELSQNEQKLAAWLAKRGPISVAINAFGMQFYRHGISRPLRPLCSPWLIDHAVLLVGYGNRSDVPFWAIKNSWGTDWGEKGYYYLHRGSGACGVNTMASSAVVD
Description: Cathepsin F assay (hCat F)
as §1, with “Serial dilutions (1/3) from 500 μM down to 0.025 μM of test compounds were prepared in dimethyl sulfoxide (DMSO). Then” for “Then”, “F (10” for “K (0.4”, “Z-Phe-Arg-AMC” for “Z-Leu-Arg-AMC”, “20” for “30”

| SMILES | IC50 [1] [nM] | IC50 [2] [nM] |
| --- | --- | --- |
| CC(C)(C)c1nc([C@@H]2CC[C@H](F)C[C@H]2C(=O)NC2(C#N)CC2)c(-c2ccc(N3CCS(=O)(=O)CC3)cc2)o1 [Example 168, (1R,2R,5S)-2-(2-(tert-butyl)-5-(4-(1,1-dioxidothiomorpho-lino)phenyl)oxazol-4-yl)-N-(1-cyanocyclopropyl)-5-fluorocyclohexane-carboxamide] | 3.3 | ≥ 10000 |
| C[C@@H](C#N)NC(=O)[C@@H]1C[C@@H](F)CC[C@H]1c1nc(C2CC(F)C2)sc1-c1ccc(N2CCS(=O)(=O)CC2)cc1 (single isomer, unassigned) [Example 234, (1R,2R,5S)-N-((S)-1-cyanoethyl)-2-(5-(4-(1,1-dioxidothiomorpho-lino)phenyl)-2-((1S,3S or 1R,3R)-(3-fluorocyclobutyl)thiazol-4-yl)-5-fluorocyclohexane-carboxamide] | 4 | 6100 |
| N#CC1(NC(=O)[C@@H]2CCC(F)(F)C[C@H]2c2nc(-c3cncc(F)c3)sc2-c2ccc(N3CCS(=O)(=O)CC3)cc2)CC1 [Example 218, (1R,2R)-N-(1-cyanocyclopropyl)-2-(5-(4-(1,1-dioxidothiomorpho-lino)phenyl)-2-(5-fluoropyridin-3-yl)thiazol-4-yl)-4,4-difluorocyclohexane-carboxamide] | 4.2 | – |
| N#CC1(NC(=O)[C@@H]2CCCC[C@H]2c2nc(-c3ccc(F)cc3)sc2-c2ccc(N3CCS(=N)(=O)CC3)cc2)CC1 [Compound 5, (1R,2R)-N-(1-Cyanocyclopropyl)-2-(2-(4-fluorophenyl)-5-(4-(1-imino-1-oxidothiomorpholino)phenyl)thiazol-4-yl)cyclohexanecarboxamide] | 1.9 | 3330 |
| CNC(=O)N1CC(c2ccc(-c3sc(-c4ccc(F)cc4)nc3[C@@H]3CCCC[C@H]3C(=O)NC3(C#N)CC3)cc2)C1 [Example 143, 3-(4-(4-((1R,2R)-2-((1-cyanocyclopropyl)carbamoyl)cyclohex-yl)-2-(4-fluorophenyl)thiazol-5-yl)phenyl)-N-methylazetidine-1-carboxamide] | 2 | 134 |
| CC(C)[C@@H](C#N)NC(=O)[C@@H]1C[C@@H](F)CC[C@H]1c1nc(-c2cncc(F)c2)sc1-c1ccc(N2CCS(=O)(=O)CC2)cc1 [Example 209, (1R,2R,5S)-N-((S)-1-cyano-2-methylpropyl)-2-(5-(4-(1,1-dioxidothiomorpho-lino)phenyl)-2-(5-fluoropyridin-3-yl)thiazol-4-yl)-5-fluorocyclohexane-carboxamide] | 1.5 | 1000 |
| N#CC1(NC(=O)[C@@H]2CC3CC3C[C@H]2c2nc(-c3cncc(Cl)c3)sc2-c2ccc(N3CCS(=O)(=O)CC3)cc2)CC1 (single isomer, unassigned) [Example 109, (1S or R,3R,4R,6R or S)-4-(2-(5-chloropyridin-3-yl)-5-(4-(1,1-dioxidothiomorpho-lino)phenyl)thiazol-4-yl)-N-(1-cyanocyclopropyl) bicyclo[4.1.0]heptane-3-carboxamide] | 0.6 | 258 |
| C[C@@H](C#N)NC(=O)[C@@H]1C[C@@H](F)CC[C@H]1c1nc(C2CC(F)(F)C2)sc1-c1ccc(N2CCS(=O)(=O)CC2)cc1 [Example 212, (1R,2R,5S)-N-((S)-1-cyanoethyl)-2-(2-(3,3-difluorocyclobutyl)-5-(4-(1,1-dioxidothiomorpho-lino)phenyl)thiazol-4-yl)-5-fluorocyclohexane-carboxamide] | 4.2 | 6700 |
| N#CC1(NC(=O)[C@@H]2CCCC[C@H]2c2nc(N3CCCCC3)sc2-c2ccc(N3CCS(=O)(=O)CC3)cc2)CC1 [Example 89, (1R,2R)-N-(1-cyanocyclopropyl)-2-(5-(4-(1,1-dioxidothiomorpho-lino)phenyl)-2-(piperidin-1-yl)thiazol-4-yl)cyclohexane-carboxamide] | 3 | 1000 |
| CC(C)(C)Nc1nc([C@@H]2CCCC[C@H]2C(=O)NC2(C#N)CC2)c(-c2ccc(N3CCS(=O)(=O)CC3)cc2)s1 [Example 157, (1R,2R)-2-(2-(tert-butylamino)-5-(4-(1,1-dioxidothiomorpho-lino)phenyl)thiazol-4-yl)-N-(1-cyanocyclopropyl) cyclohexanecarbox-amide] | 19.4 | ≥ 10000 |
| N#CC1(NC(=O)[C@@H]2CCCC[C@H]2c2nc(-c3ccc4c(c3)OCCO4)sc2-c2ccc(N3CCS(=O)(=O)CC3)cc2)CC1 [Example 120, (1R,2R)-N-(1-cyanocyclopropyl)-2-(2-(2,3-dihydrobenzo[b][1,4]dioxin-6-yl)-5-(4-(1,1-dioxidothiomorpho-lino)phenyl)thiazol-4-yl)cyclohexane-carboxamide] | 1.4 | 1110 |
| CC(C)(C)c1nc([C@@H]2CCCC[C@H]2C(=O)NCC#N)c(-c2ccc(N3CCS(=O)(=O)CC3)cc2)s1 [Example 19, (1R,2R)-2-(2-(tert-butyl)-5-(4-(1,1-dioxidothiomorpho-lino)phenyl)thiazol-4-yl)-N-(cyanomethyl)cyclo-hexanecarboxamide] | 0.7 | 851 |
| N#CC1(NC(=O)[C@@H]2CCCC[C@H]2c2nc(C(F)(F)c3ccccc3)sc2-c2ccc(N3CCS(=O)(=O)CC3)cc2)CC1 [Example 183, (1R,2R)-N-(1-cyanocyclopropyl)-2-(2-(difluoro(phenyl)methyl)-5-(4-(1,1-dioxidothiomorpho-lino)phenyl)thiazol-4-yl)cyclohexane-carboxamide] | 5.7 | 810 |
| CC(C)(O)C(C#N)NC(=O)[C@@H]1CCCC[C@H]1c1nc(-c2ccc(F)cn2)sc1-c1ccc(N2CCS(=O)(=O)CC2)cc1 (single isomer, unassigned) [Example 227, (1R,2R)-N-((R or S)-1-cyano-2-hydroxy-2-methylpropyl)-2-(5-(4-(1,1-dioxidothiomorpho-lino)phenyl)-2-(5-fluoropyridin-2-yl)thiazol-4-yl)cyclohexane-carboxamide] | 59.5 | – |
| N#CC1(NC(=O)[C@@H]2C[C@@H](F)CC[C@H]2c2nc(C3CC(F)C3)sc2-c2ccc(N3CCS(=O)(=O)CC3)cc2)CC1 (single isomer, unassigned) [Example 235, (1R,2R,5S)-N-(1-cyanocyclopropyl)-2-(5-(4-(1,1-dioxidothiomorpho-lino)phenyl)-2-((1R,3R or 1S,3S)-3-fluorocyclobutyl)thiazol-4-yl)-5-fluorocyclohexane-carboxamide] | 4.2 | – |
| Cc1ncc(-c2nc([C@@H]3CCCC[C@H]3C(=O)NC3(C#N)CC3)c(-c3ccc(N4CCS(=O)(=O)CC4)cc3)s2)s1 [Example 52, (1R,2R)-N-(1-cyanocyclopropyl)-2-(5-(4-(1,1-dioxidothiomorpho-lino)phenyl)-2′-methyl-[2,5′-bithiazol]-4-yl)cyclohexane-carboxamide] | 2.3 | – |
| CC(C)(O)C(C#N)NC(=O)[C@@H]1CCCC[C@H]1c1nc(-c2ccc(F)cn2)sc1-c1ccc(N2CCS(=O)(=O)CC2)cc1 (single isomer, unassigned) [Example 226, (1R,2R)-N-((S or R)-1-cyano-2-hydroxy-2-methylpropyl)-2-(5-(4-(1,1-dioxidothiomorpho-lino)phenyl)-2-(5-fluoropyridin-2-yl)thiazol-4-yl)cyclohexane-carboxamide] | – | ≥ 10000 |
| CC(C)(C#N)NC(=O)[C@@H]1C[C@@H](F)CC[C@H]1c1nc(-c2ccc(F)cn2)sc1-c1ccc(N2CCS(=O)(=O)CC2)cc1 [Example 140, (1R,2R,5S)-N-(2-cyanopropan-2-yl)-2-(5-(4-(1,1-dioxidothiomorpho-lino)phenyl)-2-(5-fluoropyridin-2-yl)thiazol-4-yl)-5-fluorocyclohexane-carboxamide] | 66.7 | – |
| CC1CC1(C#N)NC(=O)[C@@H]1CCCC[C@H]1c1nc(-c2ccc(F)cn2)sc1-c1ccc(N2CCS(=O)(=O)CC2)cc1 (single isomer, unassigned) [Example 203, (1R,2R)-N-((1R,2S or 1R,2R or 1S,2S or 1S,2R)-1-cyano-2-methylcyclopropyl)-2-(5-(4-(1,1-dioxidothiomorpho-lino)phenyl)-2-(5-fluoropyridin-2-yl)thiazol-4-yl)cyclohexane-carboxamide] | 161 | – |
| N#CC1(NC(=O)[C@@H]2CCC(F)(F)C[C@H]2c2nc(-c3cncc(F)c3)sc2-c2ccc(N3CCS(=O)(=O)CC3)cc2)CC1 [Example 108, (1R,2R)-N-(1-cyanocyclopropyl)-2-(5-(4-(1,1-dioxidothiomorpho-lino)phenyl)-2-(5-fluoropyridin-3-yl)thiazol-4-yl)-4,4-difluorocyclohexane-carboxamide] | 1.7 | – |

Reference: patent US9573913B2, “Cathepsin cysteine protease inhibitors” (Merck Sharp & Dohme Corp., priority 2013, dated 2017)
